Data from US12133839B2, “Cannabinoid derivatives and methods for their preparation” (priority 2018, dated 2024).

Legend:
[1] = test system: Cytochrome P450 (Cy-P450)
Cy-P450 = conditions: compared with CBD

CCCCCc1cc(O)c(C2CC(C)CCC2C(C)C)c(O)c1C(C)=O (centres unmarked) [Tetradhydro 2′-acetyl CBD (III), [Ar]-Acetyl Tetrahydrocannabidiol]
time for which formation of 11-Hydroxy THC is prevented (enhanced CBD effect) [1]: about one

CCCCCc1cc(O)c(C2CC(C)CCC2C(C)C)c(O)c1 (centres unmarked) [Tetrahydro CBD (II), Tetrahydrocannabidiol]
duration of the increased CBD activity [1]: only a few minutes | increase in CBD activity, in effect and duration ([1]; compared with CBD): approximately double | oxidation by Cy-P450 (Cy-P450): slower oxidation

CCCCCc1cc(O)c(C2CC(C)CCC2C(C)C)c(O)c1C(=O)CC (centres unmarked) [[Ar]-Propionyl Tetrahydrocannabidiol]
time for which THC metabolism is delayed [1]: up to 48 hours
